Results published in ChEMBL document CHEMBL4373682, “Synergistic effect of tolfenamic acid and glycyrrhizic acid on TPA-induced skin inflammation in mice” (Medchemcomm, 2019).

How the values were obtained:
Mus musculus [1] = assay: Antiinflammatory activity against TPA-induced ear edema in BALB/c mouse assessed as effect on weight of ear punches at 100 mg/kg, po administered 6 mins prior to TPA challenge and treated twice in 4 hrs and measured after 6 hrs post administration (reference value: 4.5 +/- 0.18 mg); format: functional
Mus musculus [2] = assay: Antiinflammatory activity against TPA-induced ear edema in BALB/c mouse assessed as inhibition of ear edema at 100 mg/kg, po administered 6 mins prior to TPA challenge and treated twice in 4 hrs and measured after 6 hrs post administration relative to control; format: functional
Mus musculus [3] = assay: Antiinflammatory activity against TPA-induced ear edema in BALB/c mouse assessed as inhibition of ear edema at 50 mg/kg, po administered 6 mins prior to TPA challenge and treated twice in 4 hrs and measured after 6 hrs post administration relative to control; format: functional
[4] = Tmax in rat at 10 to 480 mg/kg, po; format: ADME, organism-based; details: in vivo

Tmax [4] [h]	SMILES	Activity (Mus musculus [1]) [mg]	inhibition in vivo at 100 mg/kg (Mus musculus [2]) [%]	inhibition in vivo at 50 mg/kg (Mus musculus [3]) [%]
–	CC(=O)Oc1ccccc1C(=O)O [ASPIRIN]	11.2	–	–
–	CCc1cccc2c3c([nH]c12)C(CC)(CC(=O)O)OCC3 (stereo not given) [ETODOLAC]	11.1	–	–
–	CC1(C)[C@@H](O[C@H]2O[C@H](C(=O)O)[C@@H](O)[C@H](O)[C@H]2O[C@@H]2O[C@H](C(=O)O)[C@@H](O)[C@H](O)[C@H]2O)CC[C@]2(C)[C@H]3C(=O)C=C4[C@@H]5C[C@@](C)(C(=O)O)CC[C@]5(C)CC[C@@]4(C)[C@]3(C)CC[C@@H]12 [GLYCYRRHIZIN]	12.7	-10.8	-5.41
–	CC(C)Cc1ccc(C(C)C(=O)O)cc1 (stereo not given) [IBUPROFEN]	8.8	–	–
–	COc1ccc2cc([C@H](C)C(=O)O)ccc2c1 [NAPROXEN]	11.5	–	–
2 to 3	Cc1c(Cl)cccc1Nc1ccccc1C(=O)O [TOLFENAMIC ACID]	–	51.4	35.1
